One test concerns the target SUV39H2 (Homo sapiens (Human), UniProt Q9H5I1). The following applies: read-out: IC50 (μM) Suv 39H2 assay.
The next test concerns A549. In words: Cell-based assay, anti-proliferative activity (Cell Counting Kit-8, 72 hours). Particulars: Homo sapiens, read-out: IC50 (μM) A549. The method in brief: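 Following seeding into 96-well microtiter plates, the cells receive candidate inhibitors, and cellular growth is quantified at the end of the exposure period. An IC50 is computed for each compound.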
The next test has as its system CCD-18Co. Described as above. Particulars: Homo sapiens, read-out: IC50 (μM) CCD-18Co. The method in brief: (§1)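 Growth inhibition is read by Cell Counting Kit-8 after three days of compound treatment. Test concentrations span 0, 1.5625, 3.125, 6.25, 12.5, 25, 50 and 100 micro-M, and IC50 serves as the anti-proliferative measure.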
The next test concerns HCT-116. Described as above. Particulars: Homo sapiens, read-out: IC50 (μM) HCT-116. Put shortly:
as §1

Another test deals with PC14. The description is as above. The following applies: Homo sapiens, read-out: IC50 (μM) PC14. The method in brief:
as §1

Another test concerns HFL1. Described as above. Particulars: Homo sapiens, read-out: IC50 (μM) HFL1. Put shortly:
as §1

Where [1] appears, read: A549 cells, 72 hours, Cell Counting Kit-8.
[2] abbreviates: CCD-18Co cells, 72 hours, Cell Counting Kit-8.
Setting [3] is: HCT-116 cells, 72 hours, Cell Counting Kit-8.
[4] abbreviates: PC-14, PC14 cells, 72 hours, Cell Counting Kit-8.
The mark [5] stands for this setting: HFL1 cells, 72 hours, Cell Counting Kit-8.
Where [6] appears, read: A549 cells, Cell Counting Kit-8, 72 hours.
Where [7] appears, read: CCD-18Co cells, Cell Counting Kit-8, 72 hours.
Where [8] appears, read: HCT-116 cells, Cell Counting Kit-8, 72 hours.
The mark [9] stands for this setting: PC-14, PC14 cells, Cell Counting Kit-8, 72 hours.
The mark [10] stands for this setting: HFL1 cells, Cell Counting Kit-8, 72 hours.

Structures are written as SMILES. Counter-ions that a name gives are not always drawn. Like-named read-outs stand apart in the source and are kept apart here.

Chain of SUV39H2 (Q9H5I1 whole entry): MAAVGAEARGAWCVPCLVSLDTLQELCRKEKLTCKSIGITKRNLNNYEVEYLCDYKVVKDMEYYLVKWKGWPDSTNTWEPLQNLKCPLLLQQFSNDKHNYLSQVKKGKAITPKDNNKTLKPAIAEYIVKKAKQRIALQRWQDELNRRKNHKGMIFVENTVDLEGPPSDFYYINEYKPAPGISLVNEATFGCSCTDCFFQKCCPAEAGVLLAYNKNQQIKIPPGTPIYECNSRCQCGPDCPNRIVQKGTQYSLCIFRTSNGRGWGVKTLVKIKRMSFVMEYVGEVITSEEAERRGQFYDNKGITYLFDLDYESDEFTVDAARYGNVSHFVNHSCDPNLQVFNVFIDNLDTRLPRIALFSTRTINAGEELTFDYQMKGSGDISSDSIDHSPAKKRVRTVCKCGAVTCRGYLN

For `COc1cc(OCCN)c(-c2cn3ccc(N4CCN(S(=O)(=O)C5CC5)CC4)cc3n2)cc1Cl` [Example 234, 2-(4-chloro-2-(7-(4-(cyclopropylsulfonyl)piperazin-1-yl)imidazo[1,2-a]-pyridin-2-yl)-5-methoxyphenoxy)ethanamine], the IC50 at SUV39H2 (enzyme assay) turned out to be 0.0418 µM; with A549 (setting [1]), 10 µM; in the test on CCD-18Co (setting [2]) it was 6.1 µM; in the test on HCT-116 (setting [3]), 5.3 µM; in the test with PC14 (setting [4]) it was 6.4 µM; in the test on HFL1 (setting [5]) it was 6.2 µM.

Consider `COc1cc(OC)c(-c2cn3ccc(-c4ccc(C(=O)NCCCN)cc4)cc3n2)cc1Cl` [Example 265, N-(3-aminopropyl)-4-(2-(5-chloro-2,4-dimethoxyphenyl)imidazo-[1,2-a]pyridin-7-yl)benzamide], for which the IC50 was 0.036 µM on SUV39H2 (enzyme assay); 5.5 µM in the test with A549 (setting [1]); 7.3 µM in the test on CCD-18Co (setting [2]); 5.2 µM in the test on HCT-116 (setting [3]); 4.2 µM in the test with PC14 (setting [4]); 4.7 µM in the test on HFL1 (setting [5]).

As for `COc1cc(OCCCN(C)C)c(-c2cn3ccc(N4CCN(S(=O)(=O)C(C)C)CC4)cc3n2)cc1Cl` [Example 197, 3-(4-Chloro-2-(7-(4-(isopropylsulfonyl)piperazin-1-yl)imidazo[1,2-a]pyridin-2-yl)-5-methoxyphenoxy)-N,N-dimethylpropan-1-amine], the IC50 is 0.0144 µM at SUV39H2 (enzyme assay); 3.4 µM in the test with A549 (setting [6]); 2.9 µM in the test on CCD-18Co (setting [7]); 3.8 µM in the test on HCT-116 (setting [8]); 2.3 µM in the test with PC14 (setting [9]); 2.9 µM in the test on HFL1 (setting [10]).

As for `COc1cc(OC)c(-c2cn3ccc(N4CCC(CCN)CC4)cc3n2)cc1Cl` [Example 72, 2-(1-(2-(5-chloro-2,4-dimethoxyphenyl)imidazo[1,2-a]pyridine-7-yl)piperidin-4-yl)ethanamine dihydrochloride], the IC50 turned out to be 0.00875 µM on SUV39H2; 5.3 µM in the test with A549 (A549, 72 h); 7 µM in the test with CCD-18Co (CCD-18Co, 72 h); 4.9 µM in the test on HCT-116 (HCT-116, 72 h); 2.5 µM with PC14 (PC-14, 72 h); 3.7 µM in the test on HFL1 (HFL1, 72 h).

Consider `COc1cc(OCCCN(C)C)c(-c2cn3ccc(N4CCCNCC4)cc3n2)cc1Cl` [Example 209, 3-{2-[7-(1,4-diazepan-1-yl)imidazo[1,2-a]pyridin-2-yl]-4-chloro-5-methoxyphenoxy}-N,N-dimethylpropan-1-amine], for which the IC50 was 0.00207 µM at SUV39H2 (enzyme assay); 3 µM in the test on A549 (setting [6]); 3.2 µM in the test on CCD-18Co (setting [7]); 3.7 µM with HCT-116 (setting [8]); 2.7 µM in the test on PC14 (setting [9]); 1.2 µM in the test with HFL1 (setting [10]).

`COc1cc(OC)c(-c2cn3ccc(N4CCC(O)C4)cc3n2)cc1Br` (stereo not drawn) [Example 7, 1-(2-(5-bromo-2,4-dimethoxyphenyl)imidazo[1,2-a]pyridin-7-yl)pyrrolidin-3-ol]: the IC50 on SUV39H2 (enzyme assay) was 0.00544 µM; with A549 (A549, 72 h), 6.9 µM; with CCD-18Co (CCD-18Co, 72 h), 7.6 µM; in the test on HCT-116 (HCT-116, 72 h) it was 7 µM; in the test on PC14 (PC-14, 72 h), 6.1 µM; in the test with HFL1 (HFL1, 72 h) it was 6.8 µM.

As to `COc1cc(OC)c(-c2cn3cc(NCCN)c(N4CCOCC4)c(F)c3n2)cc1Cl` [Example 208, N^1-(2-(5-chloro-2,4-dimethoxyphenyl)-8-fluoro-7-morpholinoimidazo-[1,2-a]pyridine-6-yl)ethane-1,2-diamine], the IC50 is 0.0291 µM on SUV39H2 (enzyme assay); 10 µM in the test on A549 (setting [6]); 5.9 µM in the test with CCD-18Co (setting [7]); 10 µM with HCT-116 (setting [8]); 8.4 µM with PC14 (setting [9]); 8.4 µM in the test on HFL1 (setting [10]).

For the compound `COc1cc(OCCCN(C)C)c(-c2cn3ccc(N4CCC(NC(=O)C(C)(C)C)CC4)cc3n2)cc1Cl` [Example 162, N-(1-(2-(5-chloro-2-(3-(dimethylamino)propoxy)-4-methoxyphenyl)-imidazo[1,2-a]pyridin-7-yl)piperidin-4-yl)pivalamide], the IC50 was determined as 0.0211 µM at SUV39H2 (enzyme assay); 2.8 µM with A549 (setting [6]); 5 µM with CCD-18Co (setting [7]); 3.3 µM with HCT-116 (setting [8]); 2.1 µM in the test with PC14 (setting [9]); 2.1 µM with HFL1 (setting [10]).

As to `COc1cc(OC)c(-c2cn3ccc(C4=CCN(CCN5CCCCC5)CC4)cc3n2)cc1Cl` [Example 147, 2-(5-chloro-2,4-dimethoxyphenyl)-7-(1-(2-(piperidin-1-yl)ethyl)-1,2,3,6-tetrahydropyridin-4-yl)imidazo[1,2-a]pyridine], the IC50 on SUV39H2 (enzyme assay) was determined as 0.0295 µM; in the test with A549 (setting [6]), 7 µM; with CCD-18Co (setting [7]) it was 6 µM; with HCT-116 (setting [8]) it was 7.3 µM; in the test with PC14 (setting [9]), 5.9 µM; in the test on HFL1 (setting [10]) it was 8.7 µM.

Take `COc1cc(OC)c(-c2cn3ccc(N[C@H]4CC[C@H](Nc5ccccn5)CC4)cc3n2)cc1Cl` [Example 287, N^1-(2-(5-chloro-2,4-dimethoxyphenyl)imidazo[1,2-a]pyridin-7-yl)-N^4-(pyridin-2-yl)-trans-cyclohexane-1,4-diamine]: the IC50 on SUV39H2 (enzyme assay) is 0.0327 µM; with A549 (setting [1]), 0.8 µM; in the test on CCD-18Co (setting [2]), 0.81 µM; in the test with HCT-116 (setting [3]), 0.91 µM; in the test on PC14 (setting [4]), 0.94 µM; with HFL1 (setting [5]), 0.78 µM.

With `COc1cc(OC)c(-c2cn3ccc(N4CCN(c5ccc(C#N)cn5)CC4)cc3n2)cc1Cl` [Example 293, 6-(4-(2-(5-chloro-2,4-dimethoxyphenyl)imidazo[1,2-a]pyridin-7-yl)-piperazin-1-yl)nicotinonitrile], the IC50 on SUV39H2 (enzyme assay) is 0.0226 µM; with A549 (setting [1]), 0.67 µM; in the test with CCD-18Co (setting [2]) it was 0.62 µM; in the test on HCT-116 (setting [3]), 0.33 µM; with PC14 (setting [4]), 1 µM; in the test with HFL1 (setting [5]) it was 1.3 µM.

As to `COc1cc(OC)c(-c2cn3ccc(N(C)CCN)cc3n2)cc1Cl` [Example 54, N^1-(2-(5-chloro-2,4-dimethoxyphenyl)imidazo[1,2-a]yridine-7-yl)-N1-metylethane-1,2-diamine], the IC50 at SUV39H2 (enzyme assay) was 0.00585 µM; in the test with A549 (A549, 72 h), 4.2 µM; in the test on CCD-18Co (CCD-18Co, 72 h), 3.3 µM; in the test with HCT-116 (HCT-116, 72 h), 3.1 µM; in the test on PC14 (PC-14, 72 h), 4.9 µM; in the test with HFL1 (HFL1, 72 h) it was 2.5 µM.

Regarding `COc1cc(OC)c(-c2nc3cc(N4CCN(C(=O)OC(C)(C)C)CC4)ccn3c2I)cc1Cl` [Example 290, tert-butyl 4-(2-(5-chloro-2,4-dimethoxyphenyl)-3-iodoimidazo[1,2-a]-pyridin-7-yl)piperazine-1-carboxylate], the IC50 on SUV39H2 (enzyme assay) came to 0.00975 µM; in the test with A549 (setting [1]), 1.3 µM; in the test on CCD-18Co (setting [2]), 1.4 µM; in the test on HCT-116 (setting [3]) it was 1.3 µM; in the test with PC14 (setting [4]) it was 0.61 µM; in the test with HFL1 (setting [5]) it was 1.3 µM.

`COc1cc(OC)c(-c2cn3ccc(N4CCN(S(=O)(=O)C5CC5)C(COCCN(C)C)C4)cc3n2)cc1Cl` (stereo not drawn) [Example 245, 2-((4-(2-(5-chloro-2,4-dimethoxyphenyl)imidazo[1,2-a]pyridin-7-yl)-1-(cyclopropylsulfonyl)piperazin-2-yl)methoxy)-N,N-dimethylethanamine]: the IC50 on SUV39H2 (enzyme assay) was 0.00863 µM; with A549 (setting [1]), 5.5 µM; in the test on CCD-18Co (setting [2]), 5 µM; in the test with HCT-116 (setting [3]), 9.4 µM; with PC14 (setting [4]), 5.1 µM; with HFL1 (setting [5]) it was 5.4 µM.
